One may read the IC50 as the concentration that gives 50% inhibition. A high value points to weaker potency in that assay.

SMILES strings stand for the structures.

T1 sequence (Q9NZQ7 19-238): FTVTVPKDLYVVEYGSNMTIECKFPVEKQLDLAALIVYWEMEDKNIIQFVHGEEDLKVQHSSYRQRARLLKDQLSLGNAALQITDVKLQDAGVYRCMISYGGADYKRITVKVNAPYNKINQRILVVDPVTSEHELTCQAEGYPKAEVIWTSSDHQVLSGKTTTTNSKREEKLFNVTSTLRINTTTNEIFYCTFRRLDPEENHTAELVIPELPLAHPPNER

One experiment addresses T1, PD-1/PD-L1 (Homo sapiens, UniProt Q9NZQ7).
T1 construct: Recombinant human PD-L1 protein (19-238) with a His-tag at the C-terminus; purchased AcroBiosystems PD1-H5229 (PD-L1); PD1-H5257 (PD-1)
Description: PD-1/PD-L1 homogenous time-resolved fluorescence (HTRF) binding assay. The following applies: Table 6, class symbols. As to the method:
Resolved Fluorescence (HTRF) Binding Assay
The assays were conducted in a standard black 384-well polystyrene plate with a final volume of 20 μL. Inhibitors were first serially diluted in DMSO and then added to the plate wells before the addition of other reaction components. The final concentration of DMSO in the assay was 1%. The assays were carried out at 25° C. in the PBS buffer (pH 7.4) with 0.05% Tween-20 and 0.1% BSA. Recombinant human PD-L1 protein (19-238) with a His-tag at the C-terminus was purchased from AcroBiosy stems (PD1-H5229). Recombinant human PD-1 protein (25-167) with Fc tag at the C-terminus was also purchased from AcroBiosystems (PD1-H5257). PD-L1 and PD-1 proteins were diluted in the assay buffer and 10 μL was added to the plate well. Plates were centrifuged and proteins were preincubated with inhibitors for 40 min. The incubation was followed by the addition of 10 μL of HTRF detection buffer supplemented with Europium cryptate-labeled anti-human IgG (PerkinElmer-AD0212) specific for Fc and anti-His antibody conjugated to SureLight®-Allophycocyanin (APC, PerkinElmer-AD0059H). After centrifugation, the plate was incubated at 25° C. for 60 min. Before reading on a PHERAstar FS plate reader (665 nm/620 nm ratio). Final concentrations in the assay were […] PD1, 10 nM PD-L1, 1 nM europium anti-human IgG and 20 nM anti-His-Allophycocyanin. IC50 determination was performed by fitting the curve of percent control activity versus the log of the inhibitor concentration using the GraphPad Prism 5.0 software.
Turning to `Cc1c(-c2nc3cc(CN4CCC[C@H]4C(=O)O)c(OC(F)F)cc3o2)cccc1-c1ccccc1C#N` [Example 51, ((2-(2′-cyano-2-methyl-[1,1′-biphenyl]-3-yl)-6-(difluoromethoxy)benzo[d]oxazol-5-yl)methyl)proline], the half-inhibitory concentration (IC50) fell in the range of 10 to 100 nM. `CSc1cc2oc(-c3cccc(-c4ccccc4)c3C#N)nc2cc1CN1CCC[C@H]1C(=O)O` [Example 14, ((2-(2-cyano-[1,1′-biphenyl]-3-yl)-6-(methylthio)benzo[d]oxazol-5-yl)methyl)-L-proline] returned a half-inhibitory concentration (IC50) of 0.1 to 10 nM. The same measure, in the same setting: next, `Cc1c(-c2ccccc2)cccc1-c1nc2cc(CN3CCCCC3C(=O)O)c3c(c2o1)C(=O)CO3` (stereo not shown) [Example 68, 1-((2-(2-methyl-[1,1′-biphenyl]-3-yl)-8-oxo-7,8-dihydrobenzofuro[5,4-d]oxazol-5-yl)methyl)piperidine-2-carboxylic acid]: 100 to 1000 nM. `Cc1c(-c2ccccc2)cccc1-c1nc2cc(CN3CCC[C@H]3C(=O)O)c(OCC(F)(F)F)cc2o1` [Example 60, ((2-(2-methyl-[1,1′-biphenyl]-3-yl)-6-(2,2,2-trifluoroethoxy)benzo[d]oxazol-5-yl)methyl)-L-proline] came in with a 50% inhibitory concentration (IC50) of 10 to 100 nM. In turn, `Cc1c(-c2ccccc2)cccc1-c1nc2cc(CN3CCC[C@H]3C(=O)O)c(O)cc2o1` [Example 21, ((6-hydroxy-2-(2-methyl-[1,1′-biphenyl]-3-yl)benzo[d]oxazol-5-yl)methyl)-L-proline] returned an IC50 of 10 to 100 nM. `CSc1cc2oc(-c3cccc(-c4ccccc4)c3C)nc2cc1CN[C@H](CO)C(=O)O` [Example 12, ((2-(2-methyl-[1,1′-biphenyl]-3-yl)-6-(methylthio)benzo[d]oxazol-5-yl)methyl)-D-serine] displayed a 50% inhibitory concentration (IC50) of 0.1 to 10 nM. Still for that read-out and setting: next, `Cc1c(-c2ccccc2)cccc1-c1nc2cc(CN3CCCC3(C)C(=O)O)c(OC(F)F)cc2o1` (stereo not shown) [Example 46, 1-((6-(difluoromethoxy)-2-(2-methyl-[1,1′-biphenyl]-3-yl)benzo[d]oxazol-5-yl)methyl)-2-methylpyrrolidine-2-carboxylic acid]: 0.1 to 10 nM. In the case of `Cc1c(-c2ccccc2)cccc1-c1nc2cc(CN3CCC[C@H]3C(=O)O)c(OS(C)(=O)=O)cc2o1` [Example 64, ((2-(2-methyl-[1,1′-biphenyl]-3-yl)-6-((methylsulfonyl)oxy)benzo[d]oxazol-5-yl)methyl)-L-proline], the 50% inhibitory concentration (IC50) fell in the range of 0.1 to 10 nM. `CSc1cc2oc(-c3cccc(-c4ccccc4)c3C)nc2cc1CN1CCCC1(C)C(=O)O` (stereo not shown) [Example 16, 2-methyl-1-((2-(2-methyl-[1,1′-biphenyl]-3-yl)-6-(methylthio)benzo[d]oxazol-5-yl)methyl)pyrrolidine-2-carboxylic acid]: the IC50 is 0.1 to 10 nM. Consider `CSc1cc2oc(-c3cccc(-c4ccccc4)c3C)nc2cc1CN[C@H](C(=O)O)[C@H](C)O` [Example 4, ((2-(2-methyl-[1,1′-biphenyl]-3-yl)-6-(methylthio)benzo[d]oxazol-5-yl)methyl)-L-allothreonine], for which the IC50 was in the range of 0.1 to 10 nM. The same measure, in the same setting: the value for `Cc1c(-c2ccc3c(c2)OCCO3)cccc1-c1nc2cc(CN3CCC[C@H]3C(=O)O)c(OC(F)F)cc2o1` [Example 47, ((6-(difluoromethoxy)-2-(3-(2,3-dihydrobenzo[b][1,4]dioxin-6-yl)-2-methylphenyl)benzo[d]oxazol-5-yl)methyl)-L-proline] was 0.1 to 10 nM.

The same experiment, now with this note: Table 6, numeric values.
`Cc1c(-c2ccccc2)cccc1-c1nc2cc(CN[C@@H](C(=O)O)[C@@H](C)O)c(OC(F)F)cc2o1` [Example 30, ((6-(difluoromethoxy)-2-(2-methyl-[1,1′-biphenyl]-3-yl)benzo[d]oxazol-5-yl)methyl)-D-allothreonine] had an IC50 of 4.8 nM.

For `Cc1c(-c2ccccc2)cccc1-c1nc2cc(CN[C@H](CO)C(=O)O)c(OC(F)F)cc2o1` [Example 42, ((6-(difluoromethoxy)-2-(2-methyl-[1,1′-biphenyl]-3-yl)benzo[d]oxazol-5-yl)methyl)-D-serine], the IC50 amounted to 3.4 nM. This IC50 and that of the compound before are within 1.5-fold of each other.

For the origin of these results see patent publication US20220041583A1, “IMMUNOMODULATORS, COMPOSITIONS AND METHODS THERE OF” (BETTA PHARMACEUTICALS CO., LTD, priority 2018, published 2022).
